The values that follow come from patent US20160318987A1 (MEDIMMUNE LIMITED, priority 2013, published 2016).

Where a SMILES comes first, the peptide text is derived from it. [ ]: non-standard residue; d: D form. αMeF = C[C@](N)(Cc1ccccc1)C(=O)O; Aib = CC(C)(N)C(=O)O

The target in test [1] is T1, hGIP-R (Homo sapiens, UniProt P48546).
T1 construct: expressed in transfected cells
T1 sequence (P48546 22-466): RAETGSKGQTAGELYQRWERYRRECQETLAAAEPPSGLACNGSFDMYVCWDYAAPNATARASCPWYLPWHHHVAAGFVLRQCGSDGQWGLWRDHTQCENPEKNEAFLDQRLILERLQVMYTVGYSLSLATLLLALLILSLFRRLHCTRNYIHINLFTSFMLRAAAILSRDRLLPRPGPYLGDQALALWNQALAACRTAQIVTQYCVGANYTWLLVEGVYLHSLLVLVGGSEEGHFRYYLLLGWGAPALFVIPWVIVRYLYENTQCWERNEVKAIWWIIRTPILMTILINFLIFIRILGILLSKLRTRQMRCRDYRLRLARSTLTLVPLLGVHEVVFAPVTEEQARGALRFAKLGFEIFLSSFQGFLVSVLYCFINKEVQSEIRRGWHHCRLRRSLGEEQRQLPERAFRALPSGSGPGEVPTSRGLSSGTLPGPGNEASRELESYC
Briefly: cAMP functional assay, cells expressing human GIP receptor (primary assay). Conditions: n = 2. The format is cell-based. Here is the method: (§1) The biological activities/receptor potencies of the synthetic GLP-1 peptides described herein are suitably tested for biological activity, e.g., stimulation of one or more cellular receptor responses. Stable cell lines expressing human, mouse, rat, or dog GLP-1 receptor (GLP-1R), glucagon receptor (GCGR) or glucose-dependent insulinotropic peptide (gastric inhibitory polypeptide) receptor (GIPR) are generated in HEK293 cells or CHO cells by standard methods.
(§2) cAMP assays were performed using “assay buffer”: Assay Buffer: 0.1% BSA (Sigma #A3059) in HBSS (Sigma #H8264) with 25 mM HEPES, pH 7.4 and containing 0.5 mM IBMX (Sigma #17018).
(§3) Low protein binding 384-well plates (Greiner #781280) are used to perform eleven 1 in 5 serial dilutions of test samples which are made in assay buffer. All sample dilutions are made in duplicate.
(§4) A frozen cryo-vial of cells expressing the receptor of interest is thawed rapidly in a water-bath, transferred to pre-warmed assay buffer and spun at 240× g for 5 minutes. Cells are re-suspended in assay buffer at a batch-dependent optimized concentration (e.g. hGCGR cells at 2×10^5 cells/ml, hGLP-1R and hGIPR cells at 1×10^5 cells /ml).
(§5) From the dilution plate, a 5 μL replica is stamped onto a black shallow-well u-bottom 384-well plate (Corning #3676). To this, 5 μL cell suspension is added and the plates incubated at room temperature for 30 minutes.
(§6) cAMP levels are measured using a commercially available cAMP dynamic 2 HTRF kit (Cisbio, Cat #62AM4PEJ), following the two step protocol as per manufacturer's recommendations. In brief; anti-cAMP cryptate (donor fluorophore) and cAMP-d2 (acceptor fluorophore) are made up separately by diluting each 1/20 in conjugate & lysis buffer provided in the kit. 5 μL anti-cAMP cryptate is added to all wells of the assay plate, and 5 μL cAMP-d2 is added to all wells except non-specific binding (NSB) wells, to which conjugate and lysis buffer are added. Plates are incubated at room temperature for one hour and then read on an Envision (Perkin Elmer) using excitation wavelength of 320 nm and emission wavelengths of 620 nm & 665 nm. EC50 values of the synthetic peptides determined in cAMP assays are then determined.

Test [2] has as its target T2, hGLP-1R (Homo sapiens, UniProt P43220).
T2 construct: expressed in transfected cells
Briefly: cAMP functional assay, cells expressing human GLP-1 receptor (primary assay). The class given is cell-based. Conditions: n = 2. Here is the method:
as §1, §2, §3, §4, §5, §6

T2 sequence (P43220 24-463): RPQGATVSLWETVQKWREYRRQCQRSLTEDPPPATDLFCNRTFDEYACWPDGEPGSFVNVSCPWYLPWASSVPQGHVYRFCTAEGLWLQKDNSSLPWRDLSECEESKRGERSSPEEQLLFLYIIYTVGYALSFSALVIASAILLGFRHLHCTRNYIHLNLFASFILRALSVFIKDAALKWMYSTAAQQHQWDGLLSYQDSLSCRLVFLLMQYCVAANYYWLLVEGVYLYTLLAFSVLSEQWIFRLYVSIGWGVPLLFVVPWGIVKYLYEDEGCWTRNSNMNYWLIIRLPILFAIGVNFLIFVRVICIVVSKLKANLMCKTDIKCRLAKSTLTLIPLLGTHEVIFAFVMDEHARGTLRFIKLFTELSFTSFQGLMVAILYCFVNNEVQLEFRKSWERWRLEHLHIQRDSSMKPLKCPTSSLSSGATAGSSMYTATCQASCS

In the case of `CC[C@H](C)[C@H](NC(=O)[C@H](Cc1ccccc1)NC(=O)[C@H](CCC(=O)O)NC(=O)[C@H](CCCCN)NC(=O)[C@H](C)NC(=O)[C@H](C)NC(=O)[C@H](CCC(N)=O)NC(=O)CNC(=O)[C@H](CCC(=O)O)NC(=O)[C@H](CC(C)C)NC(=O)[C@](C)(Cc1ccccc1)NC(=O)[C@H](CO)NC(=O)[C@H](CO)NC(=O)[C@@H](NC(=O)[C@H](CC(=O)O)NC(=O)[C@H](CO)NC(=O)[C@@H](NC(=O)[C@](C)(Cc1ccccc1)NC(=O)[C@@H](NC(=O)CNC(=O)[C@H](CCC(=O)O)NC(=O)C(C)(C)NC(=O)[C@@H](N)Cc1c[nH]cn1)[C@@H](C)O)[C@@H](C)O)C(C)C)C(=O)N[C@@H](C)C(=O)N[C@@](C)(Cc1ccccc1)C(=O)N[C@@H](CC(C)C)C(=O)N[C@H](C(=O)N[C@@H](CCCCN)C(=O)NCC(=O)N[C@@H](CCCNC(=N)N)C(N)=O)C(C)C` [SEQ ID NO: 30, H-(Aib)^2-EGT^5-(α-MeF)^6-TSDV^10 SS-(α-MeF)^13-LE^15 GQAAK^20 EF^22-IA-(α-MeF)^25 LVKGR^30] (H-H[Aib]EGT[αMeF]TSDVSS[αMeF]LEGQAAKEFIA[αMeF]LVKGR-NH2), the EC50 (in general, the concentration that produces a half-maximal response) in test [1] amounted to 98.9 nM; in test [2] it was 0.0117 nM.
For `CC[C@H](C)[C@H](NC(=O)[C@](C)(Cc1ccccc1)NC(=O)[C@H](CCC(=O)O)NC(=O)[C@H](CCCCN)NC(=O)[C@H](C)NC(=O)[C@H](C)NC(=O)[C@H](CCC(N)=O)NC(=O)CNC(=O)[C@H](CCC(=O)O)NC(=O)[C@H](CC(C)C)NC(=O)[C@H](Cc1ccc(O)cc1)NC(=O)[C@H](CO)NC(=O)[C@H](CO)NC(=O)[C@@H](NC(=O)[C@H](CC(=O)O)NC(=O)[C@H](CO)NC(=O)[C@@H](NC(=O)[C@](C)(Cc1ccccc1)NC(=O)[C@@H](NC(=O)CNC(=O)[C@H](CCC(=O)O)NC(=O)C(C)(C)NC(=O)[C@@H](N)Cc1c[nH]cn1)[C@@H](C)O)[C@@H](C)O)C(C)C)C(=O)N[C@@H](C)C(=O)N[C@@](C)(Cc1ccccc1)C(=O)N[C@@H](CC(C)C)C(=O)N[C@H](C(=O)N[C@@H](CCCCN)C(=O)NCC(=O)N[C@@H](CCCNC(=N)N)C(N)=O)C(C)C` [SEQ ID NO: 31, H-(Aib)^2-EGT^5-(α-MeF)^6-TSDV^10 SSYLE^15 GQAAK^20 E-(α-MeF)^22-IA-(α-MeF)^25 LVKGR^30], the EC50 turned out to be 102 nM in test [1] and 0.0155 nM in test [2].
As for `CC[C@H](C)[C@H](NC(=O)[C@](C)(Cc1ccccc1)NC(=O)[C@H](CCC(=O)O)NC(=O)[C@H](CCCCN)NC(=O)[C@H](C)NC(=O)[C@H](C)NC(=O)[C@H](CCC(N)=O)NC(=O)CNC(=O)[C@H](CCC(=O)O)NC(=O)[C@H](CC(C)C)NC(=O)[C@](C)(Cc1ccccc1)NC(=O)[C@H](CO)NC(=O)[C@H](CO)NC(=O)[C@@H](NC(=O)[C@H](CC(=O)O)NC(=O)[C@H](CO)NC(=O)[C@@H](NC(=O)[C@H](Cc1ccccc1)NC(=O)[C@@H](NC(=O)CNC(=O)[C@H](CCC(=O)O)NC(=O)C(C)(C)NC(=O)[C@@H](N)Cc1c[nH]cn1)[C@@H](C)O)[C@@H](C)O)C(C)C)C(=O)N[C@@H](C)C(=O)N[C@@](C)(Cc1ccccc1)C(=O)N[C@@H](CC(C)C)C(=O)N[C@H](C(=O)N[C@@H](CCCCN)C(=O)NCC(=O)N[C@@H](CCCNC(=N)N)C(N)=O)C(C)C` [SEQ ID NO: 32, H-(Aib)^2-EGT^5-FTSDV^10 SS-(α-MeF)^13-LE^15 GQAAK^20 E-(α-MeF)^22-IA-(α-MeF)^25 LVKGR^30] (H-H[Aib]EGTFTSDVSS[αMeF]LEGQAAKE[αMeF]IA[αMeF]LVKGR-NH2), the EC50 in test [1] was 102 nM; in test [2] it was 0.102 nM.
As to `CC[C@H](C)[C@H](NC(=O)[C@H](Cc1ccccc1)NC(=O)[C@H](CCC(=O)O)NC(=O)[C@H](CCCCN)NC(=O)[C@H](C)NC(=O)[C@H](C)NC(=O)[C@H](CCC(N)=O)NC(=O)CNC(=O)[C@H](CCC(=O)O)NC(=O)[C@H](CC(C)C)NC(=O)[C@H](Cc1ccccc1)NC(=O)[C@H](CO)NC(=O)[C@H](CO)NC(=O)[C@@H](NC(=O)[C@H](CC(=O)O)NC(=O)[C@H](CO)NC(=O)[C@@H](NC(=O)[C@H](Cc1ccccc1)NC(=O)[C@H](CO)NC(=O)CNC(=O)[C@H](CCC(=O)O)NC(=O)C(C)(C)NC(=O)[C@@H](N)Cc1c[nH]cn1)[C@@H](C)O)C(C)C)C(=O)N[C@@H](C)C(=O)N[C@@H](Cc1ccccc1)C(=O)N[C@@H](CC(C)C)C(=O)N[C@H](C(=O)N[C@@H](CCCCN)C(=O)NCC(=O)N[C@@H](CCCNC(=N)N)C(N)=O)C(C)C` [SEQ ID NO: 33, H-(Aib)^2-EG-(S)^5-FTSDV^10 SS-(F)^13-LE^15 GQAAK^20 EFIA-(F)^25 LVKGR^30] (H-H[Aib]EGSFTSDVSSFLEGQAAKEFIAFLVKGR-NH2), the EC50 was found to be 102 nM in test [1] and 0.0183 nM in test [2].
Turning to `CC[C@H](C)[C@H](NC(=O)[C@](C)(Cc1ccccc1)NC(=O)[C@H](CCC(=O)O)NC(=O)[C@H](CCCCN)NC(=O)[C@H](C)NC(=O)[C@H](C)NC(=O)[C@H](CCC(N)=O)NC(=O)CNC(=O)[C@H](CCC(=O)O)NC(=O)[C@H](CC(C)C)NC(=O)[C@](C)(Cc1ccccc1)NC(=O)[C@H](CO)NC(=O)[C@H](CO)NC(=O)[C@@H](NC(=O)[C@H](CC(=O)O)NC(=O)[C@H](CO)NC(=O)[C@@H](NC(=O)[C@](C)(Cc1ccccc1)NC(=O)[C@H](CO)NC(=O)CNC(=O)[C@H](CCC(=O)O)NC(=O)C(C)(C)NC(=O)[C@@H](N)Cc1c[nH]cn1)[C@@H](C)O)C(C)C)C(=O)N[C@@H](C)C(=O)N[C@@H](Cc1c[nH]c2ccccc12)C(=O)N[C@@H](CC(C)C)C(=O)N[C@H](C(=O)N[C@@H](CCCCN)C(=O)NCC(=O)N[C@@H](CCCNC(=N)N)C(N)=O)C(C)C` [SEQ ID NO: 34, H-(Aib)^2-EG-(S)^5-(α-MeF)^6-TSDV^10 SS-(α-MeF)^13-LE^15 GQAAK^20 E-(α-MeF)^22-IAW^25 LVKGR^30] (H-H[Aib]EGS[αMeF]TSDVSS[αMeF]LEGQAAKE[αMeF]IAWLVKGR-NH2), the EC50 in test [1] was determined as 102 nM; in test [2], 0.0225 nM.
Regarding `CC[C@H](C)[C@H](NC(=O)[C@H](Cc1ccccc1)NC(=O)[C@H](CCC(=O)O)NC(=O)[C@H](CCCCN)NC(=O)[C@H](C)NC(=O)[C@H](C)NC(=O)[C@H](CCC(N)=O)NC(=O)CNC(=O)[C@H](CCC(=O)O)NC(=O)[C@H](CC(C)C)NC(=O)[C@](C)(Cc1ccccc1)NC(=O)[C@H](CO)NC(=O)[C@H](CO)NC(=O)[C@@H](NC(=O)[C@H](CC(=O)O)NC(=O)[C@H](CO)NC(=O)[C@@H](NC(=O)[C@](C)(Cc1ccccc1)NC(=O)[C@H](CO)NC(=O)CNC(=O)[C@H](CCC(=O)O)NC(=O)C(C)(C)NC(=O)[C@@H](N)Cc1c[nH]cn1)[C@@H](C)O)C(C)C)C(=O)N[C@@H](C)C(=O)N[C@@](C)(Cc1ccccc1)C(=O)N[C@@H](CC(C)C)C(=O)N[C@H](C(=O)N[C@@H](CCCCN)C(=O)NCC(=O)N[C@@H](CCCNC(=N)N)C(N)=O)C(C)C` [SEQ ID NO: 35, H-(Aib)^2-EG-(S)^5-(α-MeF)^6-TSDV^10 SS-(α-MeF)^13-LE^15 GQAAK^20 EFIA-(α-MeF)^25 LVKGR^30] (H-H[Aib]EGS[αMeF]TSDVSS[αMeF]LEGQAAKEFIA[αMeF]LVKGR-NH2), the values for the EC50 in test [1] and in test [2] were 102 nM and 0.0201 nM, respectively.
